≈ marks a conversion by molar mass, not a printed value.
Assays:
Test in all cases: MIC, CLSI broth microdilution
Format in all cases: cell-based
Escherichia coli CMY-2 = details: CMY2
Procedure: (§1) Gram-negative and Gram-positive bacterial strains used during the in vitro minimum inhibitory concentration (MIC) determination were obtained either from the American Type Culture Collection (ATCC) or from clinical specimens. All strains were characterized genotypically and the respective antibiotic resistance markers for each strain were identified.
(§2) Isolates were sub-cultured onto appropriate media and stocked in skim milk at −80° C. Following two subcultures from frozen stock, in vitro antimicrobial susceptibility testing was performed using the Clinical and Laboratory Standards Institute (CLSI) broth microdilution method. Briefly, fresh cultures were suspended in culture media to give a final stock inoculum size of 5×10^7 colony forming units per milliliter of broth (CFU/mL). […] 100 μL of the stock solutions were added to the first wells in a 96-well plate and were then diluted using a 2-fold dilution method to give a range of 32-0.025 μg/mL. 100 μL of the bacterial suspensions were then added to the 96-well plates to give a final working inoculum size of 5×10^5 CFU/mL. The final compound concentration range was 16-0.0125 μg/mL. […] MICs for comparator agents were determined using custom-designed, in-house prepared 96-well broth microdilution panels.

[1] = tested on: Pseudomonas aeruginosa OprD negative
Procedure: as §1, §2

[2] = tested on: Klebsiella pneumoniae OXA-163, OXA-1_OXA-30, SHV-1, TEM-1
Procedure: as §1, §2

[3] = tested on: Klebsiella pneumoniae KPC-2; details: KPC2
Procedure: as §1, §2

Escherichia coli SHV-12 = details: SHV12
Procedure: as §1, §2

[4] = tested on: Acinetobacter baumannii ATCC 19606; details: ATCC19606
Procedure: as §1, §2

[5] = tested on: Escherichia coli Isogenic TEM-10
Procedure: as §1, §2

[6] = tested on: Escherichia coli pSMART_Ecloacae_AmpC
Procedure: as §1, §2

[7] = tested on: Klebsiella pneumoniae OXA-48, SHV-1
Procedure: as §1, §2

[8] = tested on: Citrobacter freundii species complex OXA-181; details: Citrobacter freundii species complex, OXA-181; read-out: MIC
Procedure: as §1, §2

[9] = tested on: Escherichia coli pSMART_Cfreundii_AmpC
Procedure: as §1, §2

[10] = tested on: Serratia marcescens AmpC overexpressed
Procedure: as §1, §2

[11] = tested on: Klebsiella oxytoca KPC-2, TEM-1; details: KPC-2, TEM-1, read-out: MIC
Procedure: as §1, §2

[12] = tested on: Escherichia coli Empty pSMART plasmid
Procedure: as §1, §2

[13] = tested on: Klebsiella pneumoniae KPC-3; details: KPC3, KPC-3, read-out: MIC
Procedure: as §1, §2

[14] = tested on: Pseudomonas aeruginosa ATCC 27853; details: ATCC27853
Procedure: as §1, §2

[15] = tested on: Escherichia coli CTX-M-15; details: CTXM15
Procedure: as §1, §2

[16] = tested on: Escherichia coli Isogenic TEM-26
Procedure: as §1, §2

[17] = tested on: Klebsiella aerogenes VIM-1, SHV-12
Procedure: as §1, §2

[18] = tested on: Enterobacter cloacae species complex NDM-1
Procedure: as §1, §2

[19] = tested on: Escherichia coli ATCC 25922; details: ATCC25922
Procedure: as §1, §2

[20] = tested on: Pseudomonas aeruginosa AmpC overexpressed
Procedure: as §1, §2

[21] = tested on: Serratia marcescens SME-2; details: SME2
Procedure: as §1, §2

[22] = tested on: Klebsiella pneumoniae SHV-12; details: SHV12, SHV-12, read-out: MIC
Procedure: as §1, §2

SMILES: Nc1nc(/C(=N/OC(CO)(CCl)C(=O)O)C(=O)N[C@H]2CON(C3(C(=O)O)C[C@H](N4C(=O)c5cc(O)c(O)cc5C4=O)C(=O)O3)C2=O)cs1 (stereo partly drawn) [Cmpd 6, (4S)-2-[(4S)-4-{[(2Z)-2-(2-amino-1,3-thiazol-4-yl)-2-{[(2-carboxy-1-chloro-3-hydroxypropan-2-yl)oxy]imino}acetyl]amino}-3-oxo-1,2-oxazolidin-2-yl]-4-(5,6-dihydroxy-1,3-dioxo-1,3-dihydro-2H-isoindol-2-yl)-5-oxooxolane-2-carboxylic acid]
- MIC (Escherichia coli CMY-2): 1 µg/mL (≈ 1.4 µM)
- MIC [1]: 2 µg/mL (≈ 2.81 µM)
- MIC [2]: 0.03 µg/mL (≈ 0.0421 µM)
- MIC [3]: 0.03 µg/mL (≈ 0.0421 µM)
- MIC (Escherichia coli SHV-12): 1 µg/mL (≈ 1.4 µM)
- MIC [4]: 0.12 µg/mL (≈ 0.168 µM)
- MIC [5]: ≤ 0.015 µg/mL
- MIC [6]: 0.06 µg/mL (≈ 0.0842 µM)
- MIC [7]: ≤ 0.015 µg/mL
- MIC [8]: ≤ 0.015 µg/mL
- MIC [9]: 0.06 µg/mL (≈ 0.0842 µM)
- MIC [10]: 0.12 µg/mL (≈ 0.168 µM)
- MIC [11]: ≤ 0.015 µg/mL
- MIC [12]: ≤ 0.015 µg/mL
- MIC [13]: 0.03 µg/mL (≈ 0.0421 µM)
- MIC [14]: 0.25 µg/mL (≈ 0.351 µM)
- MIC [15]: 2 µg/mL (≈ 2.81 µM)
- MIC [16]: ≤ 0.015 µg/mL
- MIC [17]: 0.5 µg/mL (≈ 0.701 µM)
- MIC [18]: 0.25 µg/mL (≈ 0.351 µM)
- MIC [19]: 0.12 µg/mL (≈ 0.168 µM)
- MIC [20]: 1 µg/mL (≈ 1.4 µM)
- MIC [21]: 0.06 µg/mL (≈ 0.0842 µM)
- MIC [22]: ≤ 0.015 µg/mL

From patent US11780832B2, “Lactivicin compounds, their preparation and use as antibacterial agents” (priority 2021, dated 2023)
